Where “and” joins values, the source holds several entries; their conditions need not be identical. Equal entries are not always repeated.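 The compound was tested at five concentrations on cells cultured in 96-well plates, with a 48-hour exposure period. GI50 marks 50% less growth. TGI marks complete inhibition of growth.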
Columns and labels:
Experiment in all cases: NCI-60 cell line screen, 48 h
UO-31 renal = test system: UO-31 renal
HCT-116 colon = test system: HCT-116 colon
OVCAR-3 ovarian = test system: OVCAR-3 ovarian
CAKI-1 renal = test system: CAKI-1 renal
LOX IMVI melanoma = test system: LOX IMVI melanoma
K-562 leukemia = test system: K-562 leukemia
SN12C renal = test system: SN12C renal
786-0 renal = test system: 786-0 renal
PC-3 prostate = test system: PC-3 prostate
SR leukemia = test system: SR leukemia

Row | Structure (SMILES) | GI50 (UO-31 renal) | TGI (UO-31 renal) | GI50 (HCT-116 colon) [µM] | TGI (HCT-116 colon) | GI50 (OVCAR-3 ovarian) | TGI (OVCAR-3 ovarian) | GI50 (CAKI-1 renal) | TGI (CAKI-1 renal) | GI50 (LOX IMVI melanoma) | TGI (LOX IMVI melanoma) | GI50 (K-562 leukemia) [µM] | TGI (K-562 leukemia) [µM] | GI50 (SN12C renal) [µM] | TGI (SN12C renal) | GI50 (786-0 renal) | TGI (786-0 renal) | GI50 (PC-3 prostate) [µM] | TGI (PC-3 prostate) [µM] | GI50 (SR leukemia) [µM] | TGI (SR leukemia)
1 | Cn1c(-c2c(N)n(Nc3cccc(Cl)c3)c3nc(C#N)c(C#N)nc23)nc2ccccc21 | 3.74 µM | 11.3 µM | 8.54 | > 50 µM | 6.96 µM | 33.5 µM | 7.29 µM | 43.2 µM | 5.25 µM | 11.5 µM | 5.43 | 25.5 | 5.15 | 12.5 µM | 8.91 µM | 37.3 µM | 10.5 | 33.9 | 2.53 | 41.4 µM
2 | CC(C)c1c(-c2ccccc2)nc2c(C#N)c[nH]n2c1=O | 26.5 µM | 98.6 µM | 30.5 | > 100 µM | 25.2 µM | 63.8 µM | 31.2 µM | > 100 µM | 29 µM | > 91.2 µM | 33.8 | > 100 | 29.2 | > 100 µM | 35.1 µM | > 100 µM | 25.2 | > 73.5 | 31.1 | > 100 µM
3 | CC(=O)Oc1ccc(C23c4ccccc4C2(OC(C)=O)c2cc(OC(C)=O)ccc23)cc1 (stereo not given) | 1.85 µM | 5.02 µM | 3.56 | 12.7 µM | 8.32 µM | 52.9 µM | 4.08 µM | 17.2 µM | 3.48 µM | 12.8 µM | 4.04 | > 100 | 5.37 | 20.2 µM | 6.56 µM | 20.5 µM | 3 | 11.9 | 3.14 | 24.2 µM
4 | Cn1c(C(=O)c2ccncc2)cc2ccccc21 | 27.4 µM | > 100 µM | 72 | > 100 µM | 49.7 µM | > 100 µM | 72.9 µM | > 100 µM | > 100 µM | > 100 µM | 59.3 | > 100 | > 100 | > 100 µM | > 100 µM | > 100 µM | 80.7 | > 100 | 63.1 | > 100 µM
5 | C[C@@H]1C[C@H](C)CN(S(=O)(=O)c2ccc3c(NO)c4ccc(S(=O)(=O)N5C[C@H](C)C[C@H](C)C5)cc4c(N=O)c3c2)C1 | 0.167 µM | 0.338 µM | 0.032 | 0.115 µM | 0.182 µM | 0.328 µM | 0.335 µM | > 1 µM | 0.105 µM | 0.242 µM | 0.0356 | 0.12 | 0.17 | 0.399 µM | 0.169 µM | 0.309 µM | 0.117 | 0.249 | 0.0367 | 0.215 µM
6 | O=S(=O)(NC1=NCCN1C(=S)SN1CCn2c1nsc2=S)c1cccc2ccccc12 | 26.6 µM | > 100 µM | 14.8 | 37.2 µM | 16.5 µM | 40.3 µM | 22.8 µM | 69.7 µM | 20.4 µM | 55 µM | 16.1 | 44.6 | 17.2 | 37.6 µM | 23.9 µM | 72.6 µM | 29.2 | > 100 | 10.2 | 45.6 µM
7 | Cc1nc(N)nc2c1CCC(O)S2 (stereo not given) | 39.7 µM | > 100 µM | 2.39 | 6.04 µM | 2.76 µM | 7.7 µM | 33.7 µM | > 100 µM | 10.4 µM | 24.5 µM | 5.18 | > 100 | 7.81 | 56.2 µM | 10.7 µM | 24.5 µM | 3.52 | 44.7 | 4.21 | > 100 µM
8 | COc1cccc(/C(C#N)=C/c2nc3c(N4CCOCC4)nc(Cl)nc3n2C)c1 | 0.48 µM | 1.92 µM | 0.171 | 0.433 µM | 0.611 µM | 1.92 µM | 0.621 µM | 1.99 µM | 1.01 µM | 2.25 µM | 0.447 | 10.3 | 1.1 | 2.45 µM | 1.59 µM | 3.05 µM | 1.06 | 2.98 | 0.355 | 2.44 µM
9 | CC1CCC2(NC1)OC1CC3C4CC=C5CC(O)CCC5(C)C4CCC3(C)C1C2C (stereo not given) | 18.2 µM and 6.3 µM | 37.8 µM and 13.8 µM | – | 53.5 µM and > 68.1 µM | 28 µM and 8.98 µM | > 100 µM and 32.5 µM | 25.5 µM and 11.2 µM | 71.6 µM and 33 µM | 19.9 µM and 4.93 µM | 57.3 µM and > 63.8 µM | – | > 100 | – | 50.8 µM and 38.4 µM | 14.5 µM and 3.24 µM | 30.1 µM and 11.9 µM | – | > 100 | – | 9.63 µM and 12.4 µM

Reference: PubChem BioAssay (NCI)
